Values after ≈ are worked out from the molar mass of the structure shown. Like-named read-outs stand apart in the source and are kept apart here.
How the values were obtained:
Test in all cases: Minimum inhibitory concentration, conventional tube dilution method
Type in all cases: cell-based
[1] = tested on: Candida albicans; details: fungus, tube dilution, 37 degrees, 24 hours, between 1 and 6 strains, mg/100 cc, decimal comma, read-out: Minimal Inhibitory Concentration, Cand. Alb.
Source text: (§1) The activity of some of the new nitrofuryl quinoline derivatives of the present invention is exemplified in Table 1 against a gram-positive (Staph. aureus), a gram-negative (Salmonella) bacterium and a fungus (Candida albicans). Table 1 indicates the minimum inhibitory concentration of the compound under reference in mg/100 cc required in order to inhibit the growth between 1 and 6 strains of each type. The measurements have been carried out by the conventional tube dilution method at 37 degrees after 24 hours.

[2] = tested on: Salmonella; details: read-out: Minimal Inhibitory Concentration, Salm.
Source text: as §1

[3] = tested on: Staph. aureus; details: Staphylococcus aureus; gram-positive; tube dilution, 37 degrees, 24 hours; between 1 and 6 strains; mg/100 cc; decimal comma; read-out: Minimal Inhibitory Concentration, Staph. aureus
Source text: as §1

[4] = gram-negative, tube dilution, 37 degrees, 24 hours, between 1 and 6 strains, mg/100 cc, decimal comma

Row | Compound | MIC [1] [µg/mL] | MIC [2, 4] [µg/mL] | MIC ([2]; 24 h) [µg/mL] | MIC [3] [µg/mL]
1 | CCOc1ccc2c(-c3ccc([N+](=O)[O-])o3)cc(C=NO)nc2c1 [CHNOH H NF H H OC2 H5 H] | 50 (≈ 153 µM) | > 50 | – | –
2 | CC(=O)OCc1cc(-c2ccc([N+](=O)[O-])o2)c2ccccc2n1 [CH2 OCOCH3 H NF H H H H, 2-acetoxymethyl-4-[2'-(5'-nitrofuryl)]quinoline] | 5 (≈ 16 µM) | > 50 | – | –
3 | CCc1cc(-c2ccc([N+](=O)[O-])o2)c2cc(C)ccc2n1 [C2 H5 H NF H CH3 H H, 2-ethyl-4-[2'-(5'-nitrofuryl)]-6-methyl quinoline] | < 5 | – | > 10 | –
4 | CC(=O)OCc1cc(-c2ccc([N+](=O)[O-])o2)c2ccc(OC(C)=O)cc2n1 [CH2 OCOCH3 H NF H H OCOCH3 H, 2-acetoxymethyl-4-[2'-(5'-nitrofuryl)]-7-acetoxy quinoline] | 50 to 100 (≈ 135 to 270 µM) | 10 to 25 (≈ 27 to 67.5 µM) | – | –
5 | CCc1ccc2nc(C(C)C)cc(-c3ccc([N+](=O)[O-])o3)c2c1 [CH(CH3)2 H 5NF H C2 H5 H H, 2-isopropyl-4-[2'-(5'-nitrofuryl)]-6-ethyl quinoline] | 50 (≈ 161 µM) | – | – | 0.5 (≈ 1.61 µM)
6 | CCCCOc1ccc2c(-c3ccc([N+](=O)[O-])o3)cc(C)nc2c1 [CH3 H 5NF H H OC4 H9 H, 2-methyl-4-[2'-(5'-nitrofuryl)]-7-n-butoxy quinoline] | > 50 | – | – | 0.5 (≈ 1.53 µM)
7 | COc1cc2nc(C)cc(-c3ccc([N+](=O)[O-])o3)c2cc1NC(C)=O [CH3 H NF H NHCOCH3 OCH3 H, 2-methyl-4-[2'-(5'-nitrofuryl)]-6-acetylamino-7-methoxy-quinoline] | 50 (≈ 146 µM) | > 50 | – | –
8 | CCc1ccc2nc(CC)cc(-c3ccc([N+](=O)[O-])o3)c2c1 [C2 H5 H NF H C2 H5 H H, 2-ethyl-4-[2'-(5'-nitrofuryl)]-6-ethyl quinoline] | > 50 | > 10 | – | –
9 | O=C1OCCN1N=Cc1cc(-c2ccc([N+](=O)[O-])o2)c2ccccc2n1 [drawing 10 H NF H H H H] | 5 (≈ 14.2 µM) | – | – | 0.1 to 0.5 (≈ 0.284 to 1.42 µM)
10 | COc1cc2c(-c3ccc([N+](=O)[O-])o3)cc(C)[n+]([O-])c2cc1OC [O CH3 H NF H OCH3 OCH3 H] | > 50 | > 50 | – | –
11 | CCc1cc(-c2ccc([N+](=O)[O-])o2)c2cc(C)ccc2[n+]1[O-] [O C2 H5 H NF H CH3 H H] | < 5 | – | – | 0.1 (≈ 0.335 µM)
12 | CCc1cc(-c2ccc([N+](=O)[O-])o2)c2ccc(O)cc2[n+]1[O-] [O C2 H5 H NF H H OH H] | 25 (≈ 83.3 µM) | 5 (≈ 16.7 µM) | – | –
13 | COc1ccc2c(-c3ccc([N+](=O)[O-])o3)cc(C)nc2c1 [CH3 H NF H H OCH3 H, 2-methyl-4-[2'-(5'-nitrofuryl)]-7-methoxy quinoline] | 5 (≈ 17.6 µM) | 10 (≈ 35.2 µM) | – | –
14 | CCc1cccc2c(-c3ccc([N+](=O)[O-])o3)cc(C)nc12 [CH3 H NF H H H C2 H5] | 100 (≈ 354 µM) | > 50 | – | –
15 | Cc1cc(-c2ccc([N+](=O)[O-])o2)c2ccc(O)cc2[n+]1[O-] [O CH3 H NF H H OH H, 2-Methyl-4-[2'-(5'-nitrofuryl)]-7-hydroxy quinoline N-oxide] | 100 (≈ 349 µM) | 5 to 10 (≈ 17.5 to 34.9 µM) | – | –
16 | O=[N+]([O-])c1ccc(-c2cc(C=NNCCO)nc3ccccc23)o1 [drawing 9 H NF H H H H] | 25 (≈ 76.6 µM) | 5 (≈ 15.3 µM) | – | –
17 | CCCCOc1ccc2c(-c3ccc([N+](=O)[O-])o3)cc(C)[n+]([O-])c2c1 [O CH3 H NF H H OC4 H9 H] | > 10 | – | – | 0.5 to 1 (≈ 1.46 to 2.92 µM)
18 | CC(=O)Oc1ccc2c(-c3ccc([N+](=O)[O-])o3)cc(C)[n+]([O-])c2c1 [O CH3 H NF H H OCOCH3 H] | 50 (≈ 152 µM) | 5 (≈ 15.2 µM) | – | –
19 | NC(=O)NN=Cc1cc(-c2ccc([N+](=O)[O-])o2)c2ccccc2n1 [drawing 8 H NF H H H H] | 25 to 50 (≈ 76.9 to 154 µM) | 5 (≈ 15.4 µM) | – | –
20 | O=[N+]([O-])c1ccc(-c2cc(C=NO)nc3ccccc23)o1 [CHNOH H NF H H H H, 4-[2'-(5'-nitrofuryl)]quinoline-2-carboxaldehyde oxime] | 10 (≈ 35.3 µM) | 5 (≈ 17.7 µM) | – | –
21 | CCOC(=O)c1cc(-c2ccc([N+](=O)[O-])o2)c2ccccc2n1 [COOC2 H5 H NF H H H H, 2-carbethoxy-4-[2'-(5'-nitrofuryl)]quinoline] | > 50 | > 50 | – | –
22 | COc1cc2nc(C)cc(-c3ccc([N+](=O)[O-])o3)c2cc1N [CH3 H NF H NH2 OCH3 H, 2-methyl-4-[2'-(5'-nitrofuryl)]-6-amino-7-methoxy-quinoline] | 5 (≈ 16.7 µM) | 1 to 5 (≈ 3.34 to 16.7 µM) | – | –
23 | CNN=Cc1cc(-c2ccc([N+](=O)[O-])o2)c2ccccc2n1 [drawing 7 H NF H H H H] | 10 to 25 (≈ 33.8 to 84.4 µM) | 1 to 5 (≈ 3.38 to 16.9 µM) | – | –
24 | COc1cc2c(cc1NC(C)=O)c(-c1ccc([N+](=O)[O-])o1)cc(C)[n+]2[O-] [O CH3 H NF H NHCOCH3 OCH3 H] | 50 (≈ 140 µM) | 10 to 25 (≈ 28 to 70 µM) | – | –
